Data taken from EPA's ToxRefDB 2.

Key:
rat [1] = conditions: Combined chronic toxicity/carcinogenicity, sprague dawley, Oral, Feed, dose end: 2 year
rabbit = conditions: Prenatal developmental toxicity study, new zealand white, Oral, Gavage/Intubation, dose end: 19 GD
mouse [2] = conditions: Combined chronic toxicity/carcinogenicity; cd1; Oral; Feed; dose end: 95 week; group: systemic; systemic / in life observation / body weight / body weight gain
dog = conditions: Chronic toxicity, beagle, Oral, Feed, dose end: 52 week
rat [3] = conditions: Combined chronic toxicity/carcinogenicity; sprague dawley; Oral; Feed; dose end: 118 week; group: systemic; systemic / in life observation / clinical signs / feces, discoloration
rat [4] = conditions: Prenatal developmental toxicity study; other; Oral; Gavage/Intubation; dose end: 19 GD; group: developmental; developmental / developmental malformation / ureter / hydroureter
mouse [5] = conditions: Combined chronic toxicity/carcinogenicity, cd1, Oral, Feed, dose end: 104 week, group: systemic
mouse [6] = conditions: Multigenerational reproductive toxicity study; cd1; Oral; Feed; dose end: 1 generation; group: parental; systemic / in life observation / food consumption / food consumption
rat [7] = conditions: Multigenerational reproductive toxicity study, sprague dawley, Oral, Feed, dose end: 1 generation
rat [8] = conditions: Prenatal developmental toxicity study, Osborne-Mendel, Oral, Water, dose end: 20 GD
[9] = group: cholinesterase, cholinesterase / cholinesterase / cholinesterase / brain cholinesterase (che)
[10] = group: cholinesterase, cholinesterase / cholinesterase / cholinesterase / brain cholinesterase (che) + cholinesterase / cholinesterase / cholinesterase / plasma …
[11] = group: systemic, systemic / in life observation / body weight / body weight + systemic / in life observation / body weight / body weight gain
[12] = group: developmental, developmental / developmental landmark / incisor eruption / incisor eruption + developmental / developmental malformation / bone / absent + …
[13] = group: maternal, systemic / in life observation / body weight / body weight gain + systemic / in life observation / food consumption / food efficiency
[14] = group: maternal, systemic / in life observation / body weight / body weight gain + systemic / in life observation / food consumption / food efficiency + …
[15] = group: cholinesterase, cholinesterase / cholinesterase / cholinesterase / cholinesterase (che) + cholinesterase / cholinesterase / cholinesterase / plasma …
[16] = group: systemic, systemic / in life observation / clinical signs / [other] + systemic / in life observation / clinical signs / labored respiration + systemic…
[17] = systemic / organ weight / thyroid gland / absolute + systemic / organ weight / thyroid gland / relative to body weight
[18] = group: offspring, developmental / developmental landmark / vaginal opening / vaginal opening + systemic / in life observation / clinical signs / nocturnal …
[19] = group: offspring, developmental / offspring survival late / [other] / [other] + developmental / developmental landmark / vaginal opening / vaginal opening + …
[20] = group: parental, systemic / in life observation / body weight / body weight
[21] = group: reproductive, reproductive / reproductive performance / pregnancy / pregnancy
[22] = group: developmental, developmental / developmental malformation / bone / bipartite ossification + developmental / developmental malformation / bone / incomplete …
[23] = group: maternal, systemic / in life observation / water consumption / water consumption + reproductive / reproductive performance / reproductive performance …

`CNC(=O)Oc1cccc(N=CN(C)C)c1.Cl` [Formetanate hydrochloride] was tested, and the LEL (rat [1]; [9]) was 0.45 mg/kg/day, the NEL (rat [1]; [9]) was less than 0.45 mg/kg/day and the LOAEL (rat [1]; [10]) was greater than 12 mg/kg/day. For the same compound, the NOAEL (rat [1]; [10]) was no less than 12 mg/kg/day, the LOAEL (rat [1]; group: systemic, systemic / in life observation / body weight / body weight) was 12 mg/kg/day and the LEL (rat [1]; [11]) was 12 mg/kg/day. For the same compound, the NEL (rat [1]; [11]) was 2.3 mg/kg/day, the NOAEL (rat [1]; [11]) was 2.3 mg/kg/day and the LEL (rabbit; [12]) was 15 mg/kg/day. It also gave an LOAEL (rabbit; [12]) of 15 mg/kg/day, an NEL (rabbit; [12]) of 5 mg/kg/day and an NOAEL (rabbit; [12]) of 5 mg/kg/day. The LEL (rabbit; [13]) was 15 mg/kg/day, the LOAEL (rabbit; [13]) was 15 mg/kg/day and the NEL (rabbit; [14]) was 5 mg/kg/day. For the same compound, the NOAEL (rabbit; [14]) was 5 mg/kg/day, the LEL (mouse [2]) was 70 mg/kg/day and the LOAEL (mouse [2]) was 70 mg/kg/day. The NEL (mouse [2]) was 7 mg/kg/day, the NOAEL (mouse [2]) was 7 mg/kg/day and the LEL (dog; [15]) was 1.74 mg/kg/day. The LOAEL (dog; [15]) was 1.74 mg/kg/day, the NEL (dog; [15]) was 0.37 mg/kg/day and the NOAEL (dog; [15]) was 0.37 mg/kg/day. It also gave an LEL (dog; [16]) of 1.74 mg/kg/day, an LOAEL (dog; [16]) of 1.74 mg/kg/day and an NEL (dog; [16]) of 0.37 mg/kg/day. The NOAEL (dog; [16]) was 0.37 mg/kg/day.

For `COc1cc(S(=O)(=O)[O-])c(C)cc1N=Nc1c(O)ccc2cc(S(=O)(=O)[O-])ccc12.[Na+].[Na+]`, the LEL (rat [3]) was 701 mg/kg/day, the LOAEL (rat [3]) was greater than 2830 mg/kg/day and the NEL (rat [3]) was 180 mg/kg/day. It also gave an NOAEL (rat [3]) of no less than 2830 mg/kg/day, an LEL (rat [4]) of 200 mg/kg/day and an LOAEL (rat [4]) greater than 200 mg/kg/day. The NEL (rat [4]) was 100 mg/kg/day, the NOAEL (rat [4]) was no less than 200 mg/kg/day and the LEL (mouse [5]; systemic / in life observation / food consumption / food consumption) was 1880 mg/kg/day. It also gave an NEL (mouse [5]; systemic / in life observation / food consumption / food consumption + systemic / pathology microscopic / lymph node / lymphoma nos) of 507 mg/kg/day, an LOAEL (mouse [5]; [17]) greater than 7320 mg/kg/day and an NOAEL (mouse [5]; [17]) of no less than 7320 mg/kg/day. It also gave an LEL (mouse [6]) of 2930 mg/kg/day, an LOAEL (mouse [6]) greater than 2930 mg/kg/day and an NEL (mouse [6]) of 1420 mg/kg/day. The NOAEL (mouse [6]) was no less than 2930 mg/kg/day, the LEL (rat [7]; [18]) was 1250 mg/kg/day and the NEL (rat [7]; [18]) was less than 1250 mg/kg/day. It also gave an LOAEL (rat [7]; [19]) greater than 5000 mg/kg/day, an NOAEL (rat [7]; [19]) of no less than 5000 mg/kg/day and an LEL (rat [7]; [20]) of 1250 mg/kg/day. It also gave an LOAEL (rat [7]; [20]) greater than 5000 mg/kg/day, an NEL (rat [7]; [20]) of less than 1250 mg/kg/day and an NOAEL (rat [7]; [20]) of no less than 5000 mg/kg/day. For the same compound, the LEL (rat [7]; [21]) was 1250 mg/kg/day, the LOAEL (rat [7]; [21]) was greater than 5000 mg/kg/day and the NEL (rat [7]; [21]) was less than 1250 mg/kg/day. The NOAEL (rat [7]; [21]) was no less than 5000 mg/kg/day, the LEL (rat [8]; [22]) was 260 mg/kg/day and the LOAEL (rat [8]; [22]) was greater than 260 mg/kg/day. For the same compound, the NEL (rat [8]; [22]) was less than 260 mg/kg/day, the NOAEL (rat [8]; [22]) was no less than 260 mg/kg/day and the LEL (rat [8]; [23]) was 260 mg/kg/day. For the same compound, the LOAEL (rat [8]; [23]) was greater than 260 mg/kg/day, the NEL (rat [8]; [23]) was less than 260 mg/kg/day and the NOAEL (rat [8]; [23]) was no less than 260 mg/kg/day.
